The results in this text go back to US8652509B2, “Method of wound hemostasis using liquid gallium nitrate” (priority 2009, dated 2014).

Entries after “also recorded” stand apart in the source; their conditions may differ.

Test [1] has as its system bleeding time. Put plainly: Bleeding time test, forearm puncture with #11 scalpel blade (Experiment 4). The test is classed as in vivo, human. The source says: The bleeding time test measures the function of a number of coagulation pathway parameters, including platelet function, extrinsic coagulation pathway and intrinsic coagulation pathway. Here, in order to better understand the various coagulation pathways that might be impacted by gallium nitrate, a bleeding function experiment was done to see if the gallium nitrate effect worked for patients (e.g. Warfarin or Coumadin™ patients) with a suppressed extrinsic coagulation pathway.
In this experiment, a first subject (Subject 1) was treated with Coumadin™ (Warfarin) to achieve a therapeutic dose with an International Normalized Ratio (INR) of 2.5.
Subject 1: To induce bleeding, the first INR 2.5 subject's mid forearm was punctured with a #11 scalpel blade to a depth of 4 mm. This produced prompt flow of blood in the form of a steady slow blood stream down the subject's forearm. This blood flow was gently wiped with gauze every 30 seconds without applying pressure. Under these control (no gallium nitrate) conditions, the bleeding stopped at 122 seconds.
To investigate the effect of gallium nitrate, a second puncture was then made to the arm of the INR 2.5 subject following the same methods as for the first puncture. However in this portion of the experiment, at 5 seconds after puncture, once blood flow had commenced, a gallium nitrate (14%) solution was applied using a soaked cotton-ball. In contrast to the previous no-gallium control, in this gallium nitrate application experiment, blood flow ceased after only 35 seconds. A small pool of blood stayed about incision site. Thus for an INR 2.5 patient, gallium nitrate reduced bleeding time from a control of 122 seconds to a value of only 35 seconds, which is a very substantial decrease.
Subject 2: A mid forearm puncture was made following the same methods as described above. This first puncture was gently wiped with gauze every 30 seconds without applying pressure. In this no gallium nitrate control condition, bleeding stopped at 268 seconds
To investigate the effect of gallium nitrate, a second puncture was then made following the same methods as for the first puncture. At 5 seconds after puncture, once blood flow had commenced, a gallium nitrate (14%) solution was applied using a soaked cotton-ball. By 77 seconds the flow had ceased and a visible clot had started to form.

The test system of test [2] is open wound. Put plainly: Topical application of aqueous gallium nitrate to accidental open bleeding wounds (Experiments 1-3). The test is classed as in vivo, human. The source says:
Unless otherwise specified, all experiments below used an aqueous solution of unbuffered Ga(NO3)3, dissolved in water in the 5% to 15% weight/volume concentration range, specifically as stated. Note that none of these formulations contained citrate.
A first human subject sustained an accidental 1-inch long gash to the index finger, deep enough to extend below the epidermis, but stopping short of the bone. The wound bled profusely and hurt intensely. Subject immediately inserted the finger into a solution of concentrated (non-medical) 14% aqueous gallium nitrate. […] Subject kept the finger in the 14% aqueous gallium nitrate solution for 10 minutes. […] A regular bandage was then applied. Although a wound of this depth would normally require stitches, by the time further medical treatment was sought, stitches were no longer deemed necessary.
A different (second) human subject sustained an accidental 1-inch wide gash to the chin which again penetrated the epidermis, stopped short of the bone, and which bled very profusely. The wound was treated by liberally applying the same type of 14% gallium nitrate solution used in Experiment 1.
A third human subject sustained an accidental 2-inch wide and quite deep gash (penetrating the epidermis, stopping short of the bone) to the top of the forehead, accompanied by profuse bleeding. A less concentrated (7% aqueous gallium nitrate) topical solution was then applied.

Regarding `O=[N+]([O-])[O-].O=[N+]([O-])[O-].O=[N+]([O-])[O-].[Ga+3]` [gallium nitrate], the visible clot formation entry is on record as “did not form a visible clot” in test [1] (Coumadin treated subject, 14% solution) and “formed a very visible brown clot” in test [1] (non-Coumadin treated subject, 14% solution). In test [1] (Subject 1, Coumadin (Warfarin) treated, INR 2.5, 14% solution applied with soaked cotton-ball 5 seconds after puncture), the “bleeding time (blood flow ceased)” value was 35 s. Further, in test [1] (Subject 2, non-Coumadin treated, 14% solution applied with soaked cotton-ball 5 seconds after puncture), the “bleeding time (flow ceased)” value came out at 77 s. Also, in test [1] (both the Warfarin/Coumadin treated and the non-treated subject, 14% solution), the “reduction of bleeding time compared to no-gallium nitrate control” value was “approximately 75%”. In addition, the wound healing result in test [2] (Experiment 1: 14% aqueous gallium nitrate, finger gash, regular bandage afterwards) was “healed completely within a matter of days”. Moreover, the pain entry in test [2] (Experiment 1: 14% aqueous gallium nitrate, finger kept in solution for 10 minutes) is “near immediate reduction in pain; also recorded: no pain was felt”. Also, the bleeding stopped entry in test [2] (Experiment 1: first human subject, 1-inch gash to index finger, finger inserted into 14% aqueous gallium nitrate, no citrate) is “stopped within a few seconds”; in test [2] (Experiment 2: second human subject, 1-inch gash to chin, 14% gallium nitrate solution liberally applied) it was “rapidly stopped bleeding”; in test [2] (Experiment 3: third human subject, 2-inch deep gash to forehead, 7% aqueous gallium nitrate topical) it was “stopped bleeding unusually quickly”. Also, the resulting clot in test [2] (Experiment 2: 14% gallium nitrate solution, chin gash, examined by treating physician shortly thereafter) was “unusual strength”. For the same compound, the clot formation entry in test [2] (summary of the accidental event: aqueous 14% gallium nitrate on a large open wound immediately after wound formation) was “unexpectedly rapid clot formation”.
